Data on four molecules can be found in article PMC6306559 (Pharmacology Research & Perspectives, 2018).

As a reminder, the EC50 is the midpoint of the concentration-response curve. For orientation: IC50 means the concentration that gives 50% inhibition.

Experiment [1] has as its system purified guinea pig PDE‐4. Particulars: cited from earlier work.
Experiment [2] concerns untransfected COS‐7 cells. In words: Phenylephrine-induced CRE reporter assay. The class given is cell-based. Particulars: 50 μmol/L diazepam; cells do not express α1A‐AR and α1B‐AR. As for the experimental part:
(§1) cAMP response element (CRE) response assays were performed as previously described by transfecting WT α1A‐ and α1B‐AR stably expressing COS‐7 cells, parental COS‐7 cells or parental HEK293T cells, with a β‐galactosidase expression plasmid under the control of the CRE promoter.10 CRE reporter‐transfected cells were seeded into 96‐well culture plates for 24 hours before treatment with various compounds for 6 hours at 37°C 5% CO2. Media was aspirated, and the cells frozen at −80°C for at least 24 hours before measurement of cellular β‐galactosidase expression using chlorophenol red‐β‐D‐galactopyranoside. Ligands were made up in 0.5% FBS DMEM media. […] HEK293T cells transiently transfected with GPR68 and pCRE were stimulated with sodium bicarbonate‐free, low glucose DMEM, supplemented with 20 mmol/L HEPES and 0.5% FBS at pH 6.8, 7.0, 7.2, 7.4, and 7.8. The pH was adjusted at 37°C with NaOH. Cells were incubated for 6 hours at 37°C, in a room atmosphere incubator.
(In a reporter assay the amount or activity of a reporter protein is the signal.)

In experiment [3] the test system is α1A‐AR A4. Particulars: for QAPB displacement: 10 nmol/L QAPB, 2 hours, benzodiazepines up to 200 μmol/L.
Experiment [4] has as its target T1, WT α1B‐AR (Homo sapiens, UniProt P35368).
T1 construct: COS‐7 cells stably expressing unmodified α1B‐AR; expressed in transfected cells
T1 sequence (P35368 1-520): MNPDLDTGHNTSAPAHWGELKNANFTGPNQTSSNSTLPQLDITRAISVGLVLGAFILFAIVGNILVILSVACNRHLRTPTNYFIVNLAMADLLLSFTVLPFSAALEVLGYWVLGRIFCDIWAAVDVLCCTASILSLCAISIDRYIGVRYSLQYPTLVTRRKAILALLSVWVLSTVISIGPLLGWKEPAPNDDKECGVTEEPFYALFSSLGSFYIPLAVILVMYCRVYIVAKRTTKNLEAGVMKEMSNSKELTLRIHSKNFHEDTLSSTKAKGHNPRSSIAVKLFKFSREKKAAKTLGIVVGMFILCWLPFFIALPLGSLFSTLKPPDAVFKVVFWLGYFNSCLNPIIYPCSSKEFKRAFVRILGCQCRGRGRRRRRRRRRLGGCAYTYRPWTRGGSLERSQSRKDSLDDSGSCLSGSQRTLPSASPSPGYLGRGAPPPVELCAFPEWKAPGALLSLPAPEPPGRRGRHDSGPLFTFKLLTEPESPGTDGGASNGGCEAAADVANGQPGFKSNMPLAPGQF
Description: Intracellular Ca2+ mobilization in stably expressing COS‐7 cells. The class given is cell-based. The conditions noted are these: for Effect on Ca2+ mobilization: 0 to 50 μmol/L, absence or presence of 10 nmol/L phenylephrine. (Calcium assays in cells follow changes in intracellular calcium, usually with a dye or a luminescent sensor.)

In experiment [5] the test system is untransfected HEK293T cells. In words: Isoprenaline-induced CRE reporter assay. The class given is cell-based, human. Particulars: 50 μmol/L diazepam.
Experiment [6] concerns α1B‐AR expressing COS‐7 cells. In words: Phenylephrine-induced CRE reporter assay. In kind it is cell-based.
The subject of experiment [7] is α1A‐AR expressing COS‐7 cells. In words: Phenylephrine-induced CRE reporter assay. In kind it is cell-based. As for the experimental part:
as §1
Nuclear magnetic resonance (NMR) data were processed in Topspin 3.5 using squared cosine‐bells in both dimensions and zero‐filled once, prior to Fourier‐transformation. All other data was analyzed with Graphpad prism 7 (San Diego, CA, USA). All error bars are standard deviation (SD) from three independent experiments. Competition binding assays were performed in duplicate wells. Curves were fit with one site nonlinear regression. For whole cell QAPB binding, the mean QAPB fluorescence intensity (MFI) of at lease 5000 cells was measured, and plotted against QAPB concentration. Values reported represent the mean and SD of at least three K d values calculated from separate measurements. Ca^2+ mobilization data were performed in triplicate wells and normalized to the peak response elicited by 3 μmol/L ionomycin. CRE assay was conducted in triplicate, and data were normalized to the response elicited by the vehicle. Curves were fitted with three variable nonlinear regressions. For GPR68 assays, responses were normalized to CRE response at pH 6.8 (100%) and pH 7.8 (0%).

Experiment [8] concerns the target T2, WT α1A‐AR (Homo sapiens, UniProt P35348).
T2 construct: expressed in transfected cells
T2 sequence (P35348 1-466): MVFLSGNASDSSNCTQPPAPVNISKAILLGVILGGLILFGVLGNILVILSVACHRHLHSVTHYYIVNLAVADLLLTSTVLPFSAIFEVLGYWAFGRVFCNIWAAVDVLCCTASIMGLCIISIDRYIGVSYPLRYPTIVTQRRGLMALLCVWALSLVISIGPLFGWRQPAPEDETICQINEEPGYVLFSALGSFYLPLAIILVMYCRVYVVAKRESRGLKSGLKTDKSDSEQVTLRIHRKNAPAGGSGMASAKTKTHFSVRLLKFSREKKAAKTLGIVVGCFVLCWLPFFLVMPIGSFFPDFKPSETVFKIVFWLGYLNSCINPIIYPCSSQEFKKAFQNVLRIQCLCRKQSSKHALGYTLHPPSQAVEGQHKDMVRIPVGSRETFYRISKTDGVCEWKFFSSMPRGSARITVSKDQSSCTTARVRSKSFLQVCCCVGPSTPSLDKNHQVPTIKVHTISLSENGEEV
In words: Intracellular Ca2+ mobilization in stably expressing COS‐7 cells. In kind it is cell-based. The conditions noted are these: for Effect on Ca2+ mobilization: 0 to 50 μmol/L, absence or presence of 10 nmol/L phenylephrine.

Experiment [9] relates to guinea pig PDE‐4. Particulars: cited from earlier work.
For experiment [10], the system named is α1B‐AR #15. In words: QAPB competition binding at purified thermostabilized receptor on paramagnetic beads. The conditions noted are these: for QAPB displacement: 10 nmol/L QAPB, 2 hours, benzodiazepines up to 200 μmol/L.
The target of experiment [11] is T3, GPR68 (Homo sapiens, UniProt Q15743).
T3 construct: expressed in transfected cells; host or cells: HEK293T (transient)
T3 sequence (Q15743 whole entry, species assumed): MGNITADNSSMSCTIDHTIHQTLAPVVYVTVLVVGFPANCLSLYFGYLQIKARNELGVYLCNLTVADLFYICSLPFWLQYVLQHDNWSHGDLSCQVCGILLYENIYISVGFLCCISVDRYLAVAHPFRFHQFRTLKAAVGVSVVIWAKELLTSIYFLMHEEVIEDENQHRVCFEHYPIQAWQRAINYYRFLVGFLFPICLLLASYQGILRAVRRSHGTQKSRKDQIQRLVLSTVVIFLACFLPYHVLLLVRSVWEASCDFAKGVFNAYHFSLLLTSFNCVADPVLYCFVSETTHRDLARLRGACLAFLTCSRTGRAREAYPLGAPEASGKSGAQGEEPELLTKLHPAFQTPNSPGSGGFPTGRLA
In words: GPR68 pH-stimulated CRE reporter assay. The class given is cell-based. Particulars: pH 7.2; HEK293T cells transfected with GPR68. As for the experimental part: as §1, with “Cells were incubated for 6 hours at 37°C, in a room atmosphere incubator.” left out
Nuclear magnetic resonance (NMR) data were processed in Topspin 3.5 using squared cosine‐bells in both dimensions and zero‐filled once, prior to Fourier‐transformation. All other data was analyzed with Graphpad prism 7 (San Diego, CA, USA). […] For whole cell QAPB binding, the mean QAPB fluorescence intensity (MFI) of at lease 5000 cells was measured, and plotted against QAPB concentration. Values reported represent the mean and SD of at least three K d values calculated from separate measurements. […]

In experiment [12] the test system is untransfected human embryonic kidney 293T cells. In words: Forskolin-induced CRE reporter assay. The class given is cell-based. The conditions noted are these: 50 μmol/L diazepam.
In experiment [13] the test system is α1A‐AR A4. The conditions noted are these: 500 μmol/L ligand, 5 μmol/L receptor in DDM, with and without 10 μmol/L prazosin; controls DDM alone and enNTS1.
Experiment [14] addresses α1A‐AR A4. Particulars: previously reported; read-out: K d of QAPB; cited from earlier work.
The target of experiment [15] is T1, WT α1B‐AR. Description: Whole cell QAPB saturation binding by flow cytometry. Particulars: COS‐7 cells, read-out: K d of QAPB.
Description: Fifty microliter of the cell suspension was added to each well of a V‐bottom 96‐well plate (Sarstead, Nümbrecht, Germany). […] To determine nonspecific binding, cells were exposed to QAPB at the same concentrations as above, but in the presence of 100 μmol/L phentolamine. The cells were incubated with ligands for 1 hour at 20°C prior to detection of bound QAPB with flow cytometry using CytoFLEX LX flow cytometer (Beckman Coulter, Brea, CA, USA).
Experiment [16] has as its target α1B‐AR #15. The conditions noted are these: previously reported; read-out: K d of QAPB; cited from earlier work.
Setting [17] is: 2.5 mmol/L phenylephrine, increasing diazepam.
[18] abbreviates: not in untransfected COS‐7 cells.

Where two headings read alike, the source gives them in different places.

Regarding `CN1C(=O)CN=C(c2ccccc2)c2cc(Cl)ccc21` [diazepam], the “Competition with 3H‐rolipram” value in experiment [1] is “competes with ^3H‐rolipram”. Moreover, the “Modulation of phenylephrine‐induced CRE response” value in [2] is given as “positively modulated”. In addition, the QAPB displacement entry in experiment [3] and in experiment [10] was “neither diazepam nor lorazepam displaced QAPB at either receptor” each time. Also, the “Cooperativity with phenylephrine in QAPB displacement” value in experiment [3] (setting [17]) was “No cooperativity between diazepam and phenylephrine was observed”; in [10] (setting [17]) it was “No cooperativity between diazepam and phenylephrine was observed”. The “Effect on Ca2+ mobilization” value in experiment [4] and in experiment [8] was “had no effect” in each case. Moreover, the “Modulation of isoprenaline CRE efficacy” value in experiment [5] is reported as “significantly increased the CRE efficacy of isoprenaline”. Further, the EC50 was 7800 ± 1900 nM in [6] (COS-7, 800 nmol/L phenylephrine, mean ± SD from three experiments, read-out: EC50 for modulating the phenylephrine CRE response) and 6500 ± 4800 nM in [7] (COS-7, 200 nmol/L phenylephrine, mean ± SD from three experiments, read-out: EC50 for modulating the phenylephrine CRE response). Besides, the “CRE response in the absence of phenylephrine” value in experiment [6] (diazepam alone) and in [7] (diazepam alone) was “did not induce a CRE response” throughout. Moreover, in experiment [7] (50 μmol/L diazepam), the “Modulation of phenylephrine potency in CRE assay” value is listed as “positively modulated the potency of phenylephrine”. Also, the IC50 in experiment [9] is 9000 nM. In [11], the “Modulation of GPR68 CRE response” value is “did not significantly increase the CRE response of GPR68”. In addition, in [12], the “Modulation of forskolin potency in CRE assay” value is “positively modulated the potency”.
Regarding `O=C1Nc2ccc(Cl)cc2C(c2ccccc2Cl)=NC1O` (centres unmarked) [lorazepam], the QAPB displacement result in [3] and in experiment [10] was “neither diazepam nor lorazepam displaced QAPB at either receptor” in each case. In addition, the “Effect on Ca2+ mobilization” value in experiment [4] and in [8] was “had no effect” each time. For the same molecule, the “STD NMR signals, interpretation” value in [13] is “nonspecific interactions with detergent micelles”. In experiment [9] (benzodiazepines unsubstituted at N‐1), the “Potency relative to diazepam” value is listed as “less potent than diazepam”. Further, in experiment [11], the “Modulation of GPR68 CRE response” value is “positively modulated the CRE response”.
Consider `CNC[C@H](O)c1cccc(O)c1` [phenylephrine], for which the QAPB displacement result in [3] and in experiment [10] was “displaced QAPB at both receptor subtypes” in each case. Moreover, the “Agonist stimulation of calcium mobilization” value in [4] (setting [18]) and in [8] (setting [18]) was “stimulated calcium mobilization” in each case.
On to quinazoline piperazine bodipy [QAPB], for which the Kd is 11.6 nM in experiment [14], 12 ± 3 nM in experiment [15] (absence of diazepam), 20 ± 13 nM in experiment [15] (presence of 50 μmol/L diazepam) and 8.5 nM in experiment [16].
